# In patent publication EP0007672A1, “Isocyanoalkenes, process and useful intermediates for their preparation, pharmaceutical and fungicidal preparations containing those isocyanoalkenes and the use of the fungicidal preparations in agriculture” (GIST-BROCADES N.V., priority 1978, dated 1980):
# Where two headings read alike, the source gives them in different places.
# Columns and labels:
# storage stability = format: physicochemical
# Text: Those compounds in which Rx or Ry is a hydrogen atom should be stored generally at lower temperatures, e.g. in a refrigerator. The 1-isocyano-l-p-toluenesulphonylethene (Rx and Ry hydrogen atoms) appears to be very unstable. Notwithstanding this the compound, in the reaction medium in which it must be present, could be converted with a primary amine into the corresponding imidazole, which in turn, may be converted into its ^picrate. This proves that 1-isocyano-i-p-toluenesulphonylethene exists.
# Penicillium rubrum = experiment: MIC (Minimum Inhibitory Concentration); format: cell-based; details: Talaromyces ruber; Penicillium rubrum A 2395
# [1] = tested on: Trichophyton schoenleinii; experiment: MIC (Minimum Inhibitory Concentration); format: cell-based; details: Trichophyton schoenleinii 435-63; read-out: MIC values
# [2] = tested on: Trichophyton soudanese joyeux; experiment: MIC (Minimum Inhibitory Concentration); format: cell-based; details: Trichophyton soudanese joyeux 440-63; read-out: MIC values
# Trichophyton quickeaneum = experiment: MIC (Minimum Inhibitory Concentration); format: cell-based; details: Trichophyton quickeaneum A 2040; read-out: MIC values
# Trichophyton tonsurans = experiment: MIC (Minimum Inhibitory Concentration); format: cell-based; details: Trichophyton tonsurans 561-50; read-out: MIC values
# Trichophyton verrucosum = experiment: MIC (Minimum Inhibitory Concentration); format: cell-based
# Penicillium islandicum = experiment: MIC (Minimum Inhibitory Concentration); format: cell-based; details: Talaromyces islandicus; Penicillium islandicum D 189
# Trichophyton equinum = experiment: MIC (Minimum Inhibitory Concentration); format: cell-based
# Fusarium = experiment: MIC (Minimum Inhibitory Concentration); format: cell-based; details: Fusarium A 3241
# Penicillium veridicatum = experiment: MIC (Minimum Inhibitory Concentration); format: cell-based; details: Penicillium veridicatum A 2370
# Diplococcus pneumoniae = experiment: MIC (Minimum Inhibitory Concentration); format: cell-based; details: Streptococcus pneumoniae; Diplococcus pneumoniae A 2783
# Candida albicans = experiment: MIC (Minimum Inhibitory Concentration); format: cell-based
# [3] = tested on: Trichophyton mentagrophytus; experiment: MIC (Minimum Inhibitory Concentration); format: cell-based
# Penicillium italicum = experiment: MIC (Minimum Inhibitory Concentration); format: cell-based; details: Penicillium italicum 278-65
# Rhizoctonia solani = experiment: MIC (Minimum Inhibitory Concentration); format: cell-based; details: Rhizoctonia solani 200-25; read-out: MIC values
# Pasteurella multocida = experiment: MIC (Minimum Inhibitory Concentration); format: cell-based; details: Pasteurella multocida A 723; read-out: MIC values
# Aspergillus parasiticus = experiment: MIC (Minimum Inhibitory Concentration); format: cell-based; details: for MIC: Aspergillus parasiticus A 2396; for MIC values: Aspergillus parasiticus A 2397
# Trichophyton violoceum = experiment: MIC (Minimum Inhibitory Concentration); format: cell-based; details: Trichophyton violoceum 442-62; read-out: MIC values
# Trichophyton rubrum = experiment: MIC (Minimum Inhibitory Concentration); format: cell-based
# Aspergillus versiodor = experiment: MIC (Minimum Inhibitory Concentration); format: cell-based; details: Aspergillus versiodor Nr. 7
# Staphylococcus aureus = experiment: MIC (Minimum Inhibitory Concentration); format: cell-based
# Penicillium patalum = experiment: MIC (Minimum Inhibitory Concentration); format: cell-based; details: Penicillium patalum A 2389
# Proteus morganii = experiment: MIC (Minimum Inhibitory Concentration); format: cell-based; details: Morganella morganii; Proteus morganii 2241
# Aspergillus flavus = experiment: MIC (Minimum Inhibitory Concentration); format: cell-based; details: Aspergillus flavus A 2385
# Bacillus subtilis = experiment: MIC (Minimum Inhibitory Concentration); format: cell-based; details: ATCC6633; Bacillus subtilis ATCC 6633
# Fusarium (tulip) = experiment: MIC (Minimum Inhibitory Concentration); format: cell-based; details: Fusarium (tulip) A 3253
# Fusarium (bulb) = experiment: MIC (Minimum Inhibitory Concentration); format: cell-based; details: Fusarium (bulb) A 3252
# Fusarium solani = experiment: MIC (Minimum Inhibitory Concentration); format: cell-based; details: Fusarium solani A 3245; read-out: MIC values
# [4] = Trichophyton verrucosum 134-66, read-out: MIC values
# [5] = Trichophyton verrucosum A 2922, read-out: MIC values
# [6] = Trichophyton equinum 182-76, read-out: MIC values
# [7] = Trichophyton equinum 856-71, read-out: MIC values
# [8] = Candida albicans A 7, read-out: MIC values
# [9] = Candida albicans A 3140, read-out: MIC values
# [10] = Candida albicans A 3141, read-out: MIC values
# [11] = Candida albicans A 3144, read-out: MIC values
# [12] = Candida albicans A 3145, read-out: MIC values
# [13] = Candida albicans A 3165, read-out: MIC values
# [14] = Candida albicans A 3167, read-out: MIC values
# [15] = Candida albicans A 3168, read-out: MIC values
# [16] = Candida albicans A 3169, read-out: MIC values
# [17] = Candida albicans A 3171, read-out: MIC values
# [18] = Candida albicans A 3191, read-out: MIC values
# [19] = Candida albicans A 3194, read-out: MIC values
# [20] = Candida albicans A 3196, read-out: MIC values
# [21] = Trichophyton mentagrophytus 367-68, read-out: MIC values
# [22] = Trichophyton mentagrophytus 421-67, read-out: MIC values
# [23] = Trichophyton mentagrophytus A 3252, read-out: MIC values
# [24] = Trichophyton mentagrophytus R 177, read-out: MIC values
# [25] = Trichophyton mentagrophytus R 178, read-out: MIC values
# [26] = Trichophyton mentagrophytus RRL 305, read-out: MIC values
# [27] = Trichophyton rubrum 218-65, read-out: MIC values
# [28] = Trichophyton rubrum 494-62, read-out: MIC values
# [29] = Trichophyton rubrum A 810, read-out: MIC values
smiles,measurement,setting,value
"[C-]#[N+]C(=C)S(=O)(=O)c1ccc(C)cc1 [Example 8, 1-isocyano-1-(4-toluenesulphonyl)-ethene]",stability,storage stability,very unstable
"[C-]#[N+]C(=C(C)c1ccco1)S(=O)(=O)c1ccc(C)cc1 [Example 13, 1-isocyano-2-(2-furanyl)-1-(4-toluenesulphonyl)-1-propene]",MIC,Penicillium rubrum,25 µg/mL
same,MIC,[1],3 µg/mL
same,MIC,[2],6 µg/mL
same,MIC,Trichophyton quickeaneum,0.4 µg/mL
same,MIC,Trichophyton tonsurans,3 µg/mL
same,MIC,Trichophyton verrucosum; [4],0.8 µg/mL
same,MIC,Trichophyton verrucosum; [5],3 µg/mL
same,MIC,Penicillium islandicum,12.5 µg/mL
same,MIC,Trichophyton equinum; [6],1.5 µg/mL
same,MIC,Trichophyton equinum; [7],0.1 µg/mL
same,MIC,Fusarium,50 µg/mL
same,MIC,Penicillium veridicatum,3 µg/mL
same,MIC,Diplococcus pneumoniae,12.5 µg/mL
same,MIC,Candida albicans; [8],0.1 µg/mL
same,MIC,Candida albicans; [9],0.2 µg/mL
same,MIC,Candida albicans; [10],< 0.05 µg/mL
same,MIC,Candida albicans; [11],0.2 µg/mL
same,MIC,Candida albicans; [12],< 0.05 µg/mL
same,MIC,Candida albicans; [13],1.5 µg/mL
same,MIC,Candida albicans; [14],0.4 µg/mL
same,MIC,Candida albicans; [15],0.2 µg/mL
same,MIC,Candida albicans; [16],0.2 µg/mL
same,MIC,Candida albicans; [17],< 0.05 µg/mL
same,MIC,"Candida albicans; Candida albicans A 3190, read-out: MIC values",< 0.05 µg/mL
same,MIC,Candida albicans; [18],< 0.05 µg/mL
same,MIC,Candida albicans; [19],< 0.05 µg/mL
same,MIC,Candida albicans; [20],< 0.05 µg/mL
same,MIC,[3]; [21],3 µg/mL
same,MIC,[3]; [22],3 µg/mL
same,MIC,[3]; [23],3 µg/mL
same,MIC,[3]; [24],3 µg/mL
same,MIC,[3]; [25],12.5 µg/mL
same,MIC,[3]; [26],3 µg/mL
same,MIC,Penicillium italicum,3 µg/mL
same,MIC,Rhizoctonia solani,6 µg/mL
same,MIC,Pasteurella multocida,0.75 µg/mL
same,MIC,Aspergillus parasiticus,6 µg/mL
same,MIC values,Aspergillus parasiticus,6 µg/mL
same,MIC,Trichophyton violoceum,3 µg/mL
same,MIC,Trichophyton rubrum; [27],0.8 µg/mL
same,MIC,Trichophyton rubrum; [28],0.8 µg/mL
same,MIC,Trichophyton rubrum; [29],0.8 µg/mL
same,MIC,Aspergillus versiodor,> 100 µg/mL
same,MIC,Staphylococcus aureus; Staphylococcus aureus A 321,12.5 µg/mL
same,MIC,Staphylococcus aureus; Staphylococcus aureus A 355,6 µg/mL
same,MIC,Staphylococcus aureus; Staphylococcus aureus A 2000,6 µg/mL
same,MIC,Penicillium patalum,25 µg/mL
same,MIC,Proteus morganii,12.5 µg/mL
same,MIC,Aspergillus flavus,12.5 µg/mL
same,MIC,Bacillus subtilis,1.5 µg/mL
"C[C@@H]1C/C=C/C=C/C=C/C=C/[C@H](O[C@@H]2O[C@H](C)[C@@H](O)[C@H](N)[C@@H]2O)C[C@@H]2O[C@](O)(C[C@@H](O)C[C@H]3O[C@@H]3/C=C/C(=O)O1)C[C@H](O)[C@H]2C(=O)O [natamycin, reference compound]",MIC,Penicillium rubrum,3 µg/mL
same,MIC,[1],25 µg/mL
same,MIC,[2],25 µg/mL
same,MIC,Fusarium (tulip),6 µg/mL
same,MIC,Trichophyton quickeaneum,12.5 µg/mL
same,MIC,Trichophyton tonsurans,12.5 µg/mL
same,MIC,Trichophyton verrucosum; [4],25 µg/mL
same,MIC,Trichophyton verrucosum; [5],25 µg/mL
same,MIC,Penicillium islandicum,3 µg/mL
same,MIC,Trichophyton equinum; [6],25 µg/mL
same,MIC,Trichophyton equinum; [7],6 µg/mL
same,MIC,Fusarium,3 µg/mL
same,MIC,Penicillium veridicatum,1.5 µg/mL
same,MIC,Candida albicans; [8],12.5 µg/mL
same,MIC,Candida albicans; [9],25 µg/mL
same,MIC,Candida albicans; [10],3 µg/mL
same,MIC,Candida albicans; [11],3 µg/mL
same,MIC,Candida albicans; [12],3 µg/mL
same,MIC,Candida albicans; [13],25 µg/mL
same,MIC,"Candida albicans; Candida albicans A 3166, read-out: MIC values",6 µg/mL
same,MIC,Candida albicans; [14],1.5 µg/mL
same,MIC,Candida albicans; [15],12.5 µg/mL
same,MIC,Candida albicans; [16],1.5 µg/mL
same,MIC,Candida albicans; [17],6 µg/mL
same,MIC,Candida albicans; [18],6 µg/mL
same,MIC,Candida albicans; [19],3 µg/mL
same,MIC,Candida albicans; [20],6 µg/mL
same,MIC,Fusarium (bulb),6 µg/mL
same,MIC,[3]; [21],12.5 µg/mL
same,MIC,[3]; [22],12.5 µg/mL
same,MIC,[3]; [23],100 µg/mL
same,MIC,[3]; [24],50 µg/mL
same,MIC,[3]; [25],50 µg/mL
same,MIC,[3]; [26],12.5 µg/mL
same,MIC,Penicillium italicum,3 µg/mL
same,MIC,Rhizoctonia solani,2.3 µg/mL
same,MIC,Aspergillus parasiticus,2.5 µg/mL
same,MIC values,Aspergillus parasiticus,2.5 µg/mL
same,MIC,Trichophyton violoceum,50 µg/mL
same,MIC,Trichophyton rubrum; [27],12.5 µg/mL
same,MIC,Trichophyton rubrum; [28],25 µg/mL
same,MIC,Trichophyton rubrum; [29],12.5 µg/mL
same,MIC,Aspergillus versiodor,6 µg/mL
same,MIC,Penicillium patalum,3 µg/mL
same,MIC,Fusarium solani,9.3 µg/mL
same,MIC,Aspergillus flavus,50 µg/mL
